Measured values: US20250109127A1, “METHODS OF USE OF PHENOXYPROPYLAMINE COMPOUNDS TO TREAT DEPRESSION” (Minerva Neurosciences, Inc., priority 2013, published 2025)
Values joined by “and” are separate entries in the source; they are usually repeats but may differ in a detail not shown here. Equal values may be shown once. Where a name gives a salt, the structure may show the parent alone.

System: 5-HIAA release in the rat prefrontal cortex
Experiment: Microdialysis: 5-HIAA release in prefrontal cortex after I.P. administration
Assay type: in vivo
Settings: for 5-HIAA release, MEAN / 5-HIAA release, individual animals: 0.3 mg/kg I.P.; for 5-HIAA release, MEAN: n = 8; for 5-HIAA release, individual animals: one column per animal R#11,12,18,23,29,30,17,24, hydrochloride; for levels of 5-HIAA compared to the citalopram treated group (significant): SON-117 0.1 mg/kg
Method: The aim of the study was to evaluate, using microdialysis, the effects of an intraperitoneal (I.P.) administration in rats of three different doses of SON-117 on dopamine and its metabolites, serotonin and its metabolite (5-HIAA), and norepinephrine levels in prefrontal cortex.
Thirty-two adult male Wistar rats were used for the whole study (4 groups of eight animals planned for the study, Table 1).
Surgery was performed on rats weighing about 300 g at the beginning of the experiments. Rats were anaesthetized with Ketamine (50 mg/kg) & Xylazine (15 mg/kg) by intramuscular administration. The animals were placed in a stereotaxic apparatus in the flat-skull position at a constant setting of −3.3 mm between ear bars and the incisor bar. The animals were treated with a local anesthesic (xylocaine 1%, Astra Zeneca) and an analgesic (Temgesic, from Schering Plough, 0.05 mg/kg, s.c.). A rostrocaudal midline incision was made with a lancet to expose the dorsal skull surface. The “stereotaxic zero” was defined by the Bregma in accordance with Paxinos and Watson's atlas (1986). A hole was drilled in the skull with a drill and the meninges were pierced with a sterile needle to implant a CMA12 guide cannula which later received the dialysis probe.
Coordinates used for implanting guide cannula in prefrontal cortex from Bregma were anteroposterior 3.7 mm, mediolateral 0.8 mm, and dorsoventral −2 mm (top of the probe was at −5 mm). The guide cannula was fixed to the skull with two stainless steel screws (1.88 mm outside diameter) anchored. An application of dental cement was added. A plastic collar allowed each animal to be tethered to a Swivel assembly of the CMA 120 awake animal system. Following surgery, rats were kept in individual cages and allowed to recover for a minimum of 3-5 days before the experimentation. The rats were handled and put in plastic bowl for 10 min at least every day to habituate the animals to their new environment for the dialysis. An I.P. administration with saline was also performed every day.
Dialysis probes (CMA12/3 mm, membrane, 20 kD cut-off, Carnegie Medicine, Stockholm, Sweden), were carefully washed before inserting into the guide cannula. The wash was performed with the artificial cerebrospinal fluid (aCSF) medium (NaCl 147 mM, KCl 2.7 mM, CaCl2 1.2 mM, MgCl2 0.85 mM) at room temperature. The dialysis system was then equilibrated at 20° C. at a perfusion rate of 1 μl/min with a Carnegie pump (CMA100). All catheters (FEP tubing, internal volume of 1.2 μl/10 cm, and tubing adaptors) used for microdialysis were treated in the same conditions.
The probes duly prepared were inserted into the guide cannula and the CMA120 Swivel assembly secured to the animal using a plastic collar. Flow through the dialysis probe with aCSF was maintained at a rate of 1 μl/min during the whole experimentation. The first four fractions (corresponding to 2 hours) were discarded to avoid the effects of parenchymal disturbance and to ensure that an approximate steady-state level was reached. Fractions were then collected over a period of 8.5 h during which time the animals remained quiet. The dialysates were automatically collected with an autosampler (microfraction collector CMA 140, Carnegie Medicin) and stored at −80° C. until analysis. […] Perfusion was then maintained for 7 hours with aCSF. The dialysates (30 μl) were collected into 300 μl vials, transferred into dry ice and then kept frozen (−80° C.) until analysis. Frozen samples were shipped to a partner for analysis. At the end of the microdialysis study, a PBS with colored ink was perfused through the probe in order to visualize the dialyzed area.
Catecholamine assay: Concentrations of dopamine, DOPAC, HVA, 5-HIAA, 5-HT, and norepinephrin were determined for each sample by HPLC coupled with electrochemical detection.

Cc1nnc(-c2cc3c(OC[C@@H](O)CN4CCC(c5ccc(Cl)c(Cl)c5)CC4)cccc3o2)o1 [SON-117, (S)-1-(4-(3,4-dichlorophenyl)piperidino)-3-(2-(5-methyl-1,3,4-oxadiazol-2-yl)benzo(b)furan-4-yloxy)-2-propanol hydrochloride]
5-HIAA release, MEAN (T3 h 30-T4 h): 86.84 % of respective basal
5-HIAA release, individual animals (T3 h 30-T4 h): 84.27 % of respective basal and 78.82 % of respective basal and 113.26 % of respective basal and 50.70 % of respective basal and 79.10 % of respective basal and 97.98 % of respective basal and 103.77 % of respective basal
5-HIAA release, MEAN (T3 h-T3 h 30): 85.23 % of respective basal
5-HIAA release, individual animals (T3 h-T3 h 30): 91.97 % of respective basal and 87.81 % of respective basal and 101.16 % of respective basal and 49.70 % of respective basal and 76.51 % of respective basal and 101.56 % of respective basal and 87.92 % of respective basal
5-HIAA release, MEAN (T4 h 30-T5 h): 79.56 % of respective basal
5-HIAA release, individual animals (T4 h 30-T5 h): 106.09 % of respective basal and 92.34 % of respective basal and 55.38 % of respective basal and 93.00 % of respective basal and 34.98 % of respective basal and 60.78 % of respective basal and 97.49 % of respective basal and 96.40 % of respective basal
5-HIAA release, MEAN (T4 h-T4 h 30): 83.02 % of respective basal
5-HIAA release, individual animals (T4 h-T4 h 30): 101.39 % of respective basal and 87.58 % of respective basal and 68.33 % of respective basal and 105.89 % of respective basal and 46.22 % of respective basal and 58.28 % of respective basal and 100.16 % of respective basal and 96.30 % of respective basal
5-HIAA release, MEAN (T5 h 30-T6 h): 76.13 % of respective basal
5-HIAA release, individual animals (T5 h 30-T6 h): 99.18 % of respective basal and 83.12 % of respective basal and 47.00 % of respective basal and 91.59 % of respective basal and 31.98 % of respective basal and 58.90 % of respective basal and 95.96 % of respective basal and 101.31 % of respective basal
5-HIAA release, MEAN (T5 h-T5 h 30): 70.00 % of respective basal
5-HIAA release, individual animals (T5 h-T5 h 30): 36.17 % of respective basal and 102.81 % of respective basal and 51.02 % of respective basal and 88.56 % of respective basal and 33.58 % of respective basal and 69.56 % of respective basal and 91.58 % of respective basal and 86.71 % of respective basal
5-HIAA release, MEAN (T6 h 30-T7 h): 77.53 % of respective basal
5-HIAA release, individual animals (T6 h 30-T7 h): 93.10 % of respective basal and 92.17 % of respective basal and 48.56 % of respective basal and 102.17 % of respective basal and 26.99 % of respective basal and 69.28 % of respective basal
5-HIAA release, MEAN (T6 h-T6 h 30): 75.56 % of respective basal
5-HIAA release, individual animals (T6 h-T6 h 30): 95.37 % of respective basal and 79.54 % of respective basal and 45.32 % of respective basal and 101.94 % of respective basal and 31.32 % of respective basal and 69.73 % of respective basal and 87.93 % of respective basal and 93.33 % of respective basal
5-HIAA release, MEAN (T-30 min-T0 (before administration)): 101.34 % of respective basal
5-HIAA release, MEAN (T-1 h 30-T-1 h (before administration)): 96.20 % of respective basal
5-HIAA release, MEAN (T-1 h-T-30 min (before administration)): 102.47 % of respective basal
5-HIAA dialysate levels vs mean pre-administration value (SON-117 0.1 mg/kg I.P.): no statistically significant differences
levels of 5-HIAA compared to the citalopram treated group (significant) (at 0.5 h): lower
levels of 5-HIAA compared to the citalopram treated group (significant) (at 4.5 h, 5 h, 6.5 h): higher
5-HIAA concentrations in prefrontal cortex, change (SON-117 0.3 mg/kg IP, at 3.5 h and from 4.5 h to 7 h): significant and stable slight decrease
5-HIAA, difference to the citalopram group (SON-117 0.3 mg/kg, in function of time): no significant difference
